Data taken from patent US10213433B2 (AbbVie Inc., priority 2010, dated 2019).

Molecular target: Bcl-2 protein (Homo sapiens (Human), UniProt P10415)
Test: Bcl-2 binding TR-FRET (Time-Resolved Fluorescence-Resonance-Energy-Transfer) assay
Settings: inhibition constant for binding to Bcl-2 protein
Text: The smaller the Ki value, the greater is the binding affinity.

Bcl-2 protein, sequence (P10415 whole entry): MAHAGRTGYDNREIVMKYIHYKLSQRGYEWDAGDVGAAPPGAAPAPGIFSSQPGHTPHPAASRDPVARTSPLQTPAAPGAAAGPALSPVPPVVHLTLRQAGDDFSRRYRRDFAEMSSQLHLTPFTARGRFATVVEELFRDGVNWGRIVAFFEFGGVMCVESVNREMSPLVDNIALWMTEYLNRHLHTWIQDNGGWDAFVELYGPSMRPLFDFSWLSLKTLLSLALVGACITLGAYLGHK

| SMILES | Ki |
| --- | --- |
| CC1(C)CCC(CN2CCN(c3ccc(C(=O)NS(=O)(=O)c4ccc(NCCC#N)c([N+](=O)[O-])c4)c(Oc4cnc5[nH]ccc5c4)c3)CC2)=C(c2ccc(Cl)cc2)C1 [Compound 62, 4-(4-{[2-(4-chlorophenyl)-4,4-dimethylcyclohex-1-en-1-yl]methyl}piperazin-1-yl)-N-({4-[(2-cyanoethyl)amino]-3-nitrophenyl}sulfonyl)-2-(1H-pyrrolo[2,3-b]pyridin-5-yloxy)benzamide] | < 0.01 nM |
| CN1CCC(CNc2ccc(S(=O)(=O)NC(=O)c3ccc(N4CCN(CC5=C(c6ccc(Cl)cc6)CC(C)(C)CC5)CC4)cc3Oc3cnc4[nH]ccc4c3)cc2[N+](=O)[O-])CC1 [Compound 65, 4-(4-{[2-(4-chlorophenyl)-4,4-dimethylcyclohex-1-en-1-yl]methyl}piperazin-1-yl)-N-[(4-{[(1-methylpiperidin-4-yl)methyl]amino}-3-nitrophenyl)sulfonyl]-2-(1H-pyrrolo[2,3-b]pyridin-5-yloxy)benzamide] | < 0.01 nM |
| CC1(C)CCC(CN2CCN(c3ccc(C(=O)NS(=O)(=O)c4ccc(NCC5COCCN5)c([N+](=O)[O-])c4)c(Oc4cnc5[nH]ccc5c4)c3)CC2)=C(c2ccc(Cl)cc2)C1 (stereo not shown) [Compound 66, 4-(4-{[2-(4-chlorophenyl)-4,4-dimethylcyclohex-1-en-1-yl]methyl}piperazin-1-yl)-N-({4-[(morpholin-3-ylmethyl)amino]-3-nitrophenyl}sulfonyl)-2-(1H-pyrrolo[2,3-b]pyridin-5-yloxy)benzamide] | < 0.01 nM |
| CN1CCN(Nc2ccc(S(=O)(=O)NC(=O)c3ccc(N4CCN(CC5=C(c6ccc(Cl)cc6)CC(C)(C)OC5)CC4)cc3Oc3cnc4[nH]ccc4c3)cc2[N+](=O)[O-])CC1 [Compound 67, 4-(4-{[4-(4-chlorophenyl)-6,6-dimethyl-5,6-dihydro-2H-pyran-3-yl]methyl}piperazin-1-yl)-N-({4-[(4-methylpiperazin-1-yl)amino]-3-nitrophenyl}sulfonyl)-2-(1H-pyrrolo[2,3-b]pyridin-5-yloxy)benzamide] | < 0.01 nM |
| O=C(NS(=O)(=O)c1ccc(OCC2(F)CCOCC2)c([N+](=O)[O-])c1)c1ccc(N2CCN(CC3=C(c4ccc(Cl)cc4)CCC4(CCCC4)C3)CC2)cc1Oc1cnc2[nH]ccc2c1 [Compound 73, 4-(4-{[8-(4-chlorophenyl)spiro[4.5]dec-7-en-7-yl]methyl}piperazin-1-yl)-N-({4-[(4-fluorotetrahydro-2H-pyran-4-yl)methoxy]-3-nitrophenyl}sulfonyl)-2-(1H-pyrrolo[2,3-b]pyridin-5-yloxy)benzamide] | < 0.01 nM |
| CC1(C)CCC(c2ccc(Cl)cc2)=C(CN2CCN(c3ccc(C(=O)NS(=O)(=O)c4ccc(NCC5CCOCC5)c([N+](=O)[O-])c4)c(Oc4cnc5[nH]ccc5c4)c3)CC2)C1 [Compound 75, 4-(4-{[2-(4-chlorophenyl)-5,5-dimethylcyclohex-1-en-1-yl]methyl}piperazin-1-yl)-N-({3-nitro-4-[(tetrahydro-2H-pyran-4-ylmethyl)amino]phenyl}sulfonyl)-2-(1H-pyrrolo[2,3-b]pyridin-5-yloxy)benzamide] | < 0.01 nM |
| CC1(C)CCC(CN2CCN(c3ccc(C(=O)NS(=O)(=O)c4ccc(OCC5COCCN5)c([N+](=O)[O-])c4)c(Oc4cnc5[nH]ccc5c4)c3)CC2)=C(c2ccc(Cl)cc2)C1 (stereo not shown) [Compound 78, 4-(4-{[2-(4-chlorophenyl)-4,4-dimethylcyclohex-1-en-1-yl]methyl}piperazin-1-yl)-N-{[4-(morpholin-3-ylmethoxy)-3-nitrophenyl]sulfonyl}-2-(1H-pyrrolo[2,3-b]pyridin-5-yloxy)benzamide] | < 0.01 nM |
| O=C(NS(=O)(=O)c1ccc(NCC2CCOCC2)c([N+](=O)[O-])c1)c1ccc(N2CCN(CC3=C(c4ccc(Cl)cc4)CCC4(CCCC4)C3)CC2)cc1Oc1cnc2[nH]ccc2c1 [Compound 79, 4-(4-{[8-(4-chlorophenyl)spiro[4.5]dec-7-en-7-yl]methyl}piperazin-1-yl)-N-({3-nitro-4-[(tetrahydro-2H-pyran-4-ylmethyl)amino]phenyl}sulfonyl)-2-(1H-pyrrolo[2,3-b]pyridin-5-yloxy)benzamide] | < 0.01 nM |
| CC1(C)CCC(CN2CCN(c3ccc(C(=O)NS(=O)(=O)c4ccc(NC5CCN(S(C)(=O)=O)CC5)c([N+](=O)[O-])c4)c(Oc4cnc5[nH]ccc5c4)c3)CC2)=C(c2ccc(Cl)cc2)C1 [Compound 80, 4-(4-{[2-(4-chlorophenyl)-4,4-dimethylcyclohex-1-en-1-yl]methyl}piperazin-1-yl)-N-[(4-{[1-(methylsulfonyl)piperidin-4-yl]amino}-3-nitrophenyl)sulfonyl]-2-(1H-pyrrolo[2,3-b]pyridin-5-yloxy)benzamide] | < 0.01 nM |
| CC1(C)CCC(CN2CCN(c3ccc(C(=O)NS(=O)(=O)c4ccc(NC5CCS(=O)(=O)CC5)c([N+](=O)[O-])c4)c(Oc4cnc5[nH]ccc5c4)c3)CC2)=C(c2ccc(Cl)cc2)C1 [Compound 81, 4-(4-{[2-(4-chlorophenyl)-4,4-dimethylcyclohex-1-en-1-yl]methyl}piperazin-1-yl)-N-({4-[(1,1-dioxidotetrahydro-2H-thiopyran-4-yl)amino]-3-nitrophenyl}sulfonyl)-2-(1H-pyrrolo[2,3-b]pyridin-5-yloxy)benzamide] | < 0.01 nM |
| CC1(C)CCC(CN2CCN(c3ccc(C(=O)NS(=O)(=O)c4ccc(NC5CCN(C6CC6)CC5)c([N+](=O)[O-])c4)c(Oc4cnc5[nH]ccc5c4)c3)CC2)=C(c2ccc(Cl)cc2)C1 [Compound 98, 4-(4-{[2-(4-chlorophenyl)-4,4-dimethylcyclohex-1-en-1-yl]methyl}piperazin-1-yl)-N-({4-[(1-cyclopropylpiperidin-4-yl)amino]-3-nitrophenyl}sulfonyl)-2-(1H-pyrrolo[2,3-b]pyridin-5-yloxy)benzamide] | < 0.01 nM |
| CCN1CCOCC1COc1ccc(S(=O)(=O)NC(=O)c2ccc(N3CCN(CC4=C(c5ccc(Cl)cc5)CC(C)(C)CC4)CC3)cc2Oc2cnc3[nH]ccc3c2)cc1[N+](=O)[O-] (stereo not shown) [Compound 103, 4-(4-{[2-(4-chlorophenyl)-4,4-dimethylcyclohex-1-en-1-yl]methyl}piperazin-1-yl)-N-({4-[(4-ethylmorpholin-3-yl)methoxy]-3-nitrophenyl}sulfonyl)-2-(1H-pyrrolo[2,3-b]pyridin-5-yloxy)benzamide] | < 0.01 nM |
| CC1(C)CCC(CN2CCN(c3ccc(C(=O)NS(=O)(=O)c4ccc(N[C@H]5CCCN(C6CCOCC6)C5)c([N+](=O)[O-])c4)c(Oc4cnc5[nH]ccc5c4)c3)CC2)=C(c2ccc(Cl)cc2)C1 [Compound 105, 4-(4-{[2-(4-chlorophenyl)-4,4-dimethylcyclohex-1-en-1-yl]methyl}piperazin-1-yl)-N-[(3-nitro-4-{[(3S)-1-tetrahydro-2H-pyran-4-ylpiperidin-3-yl]amino}phenyl)sulfonyl]-2-(1H-pyrrolo[2,3-b]pyridin-5-yloxy)benzamide] | < 0.01 nM |
| CC1(C)CCC(CN2CCN(c3ccc(C(=O)NS(=O)(=O)c4ccc(NN5CCS(=O)(=O)CC5)c([N+](=O)[O-])c4)c(Oc4cnc5[nH]ccc5c4)c3)CC2)=C(c2ccc(Cl)cc2)C1 [Compound 107, trans-4-(4-{[2-(4-chlorophenyl)-4,4-dimethylcyclohex-1-en-1-yl]methyl}piperazin-1-yl)-N-({4-[(1,1-dioxidothiomorpholin-4-yl)amino]-3-nitrophenyl}sulfonyl)-2-(1H-pyrrolo[2,3-b]pyridin-5-yloxy)benzamide] | 0.035 nM |
| CC1(C)CCC(CN2CCN(c3ccc(C(=O)NS(=O)(=O)c4ccc(NCC5(N)CCOCC5)c([N+](=O)[O-])c4)c(Oc4cnc5[nH]ccc5c4)c3)CC2)=C(c2ccc(Cl)cc2)C1 [Compound 108, N-[(4-{[(4-aminotetrahydro-2H-pyran-4-yl)methyl]amino}-3-nitrophenyl)sulfonyl]-4-(4-{[2-(4-chlorophenyl)-4,4-dimethylcyclohex-1-en-1-yl]methyl}piperazin-1-yl)-2-(1H-pyrrolo[2,3-b]pyridin-5-yloxy)benzamide] | < 0.01 nM |
| CC1(C)CCC(CN2CCN(c3ccc(C(=O)NS(=O)(=O)c4ccc(N[C@H]5CC[C@@H](N6CCOCC6)C5)c([N+](=O)[O-])c4)c(Oc4cnc5[nH]ccc5c4)c3)CC2)=C(c2ccc(Cl)cc2)C1 [Compound 111, 4-(4-{[2-(4-chlorophenyl)-4,4-dimethylcyclohex-1-en-1-yl]methyl}piperazin-1-yl)-N-[(4-{[(1S,3R)-3-morpholin-4-ylcyclopentyl]amino}-3-nitrophenyl)sulfonyl]-2-(1H-pyrrolo[2,3-b]pyridin-5-yloxy)benzamide] | < 0.01 nM |
| CC1(C)CCC(CN2CCN(c3ccc(C(=O)NS(=O)(=O)c4ccc(N[C@@H]5CC[C@H](N6CCOCC6)C5)c([N+](=O)[O-])c4)c(Oc4cnc5[nH]ccc5c4)c3)CC2)=C(c2ccc(Cl)cc2)C1 [Compound 112, 4-(4-{[2-(4-chlorophenyl)-4,4-dimethylcyclohex-1-en-1-yl]methyl}piperazin-1-yl)-N-[(4-{[(1R,3S)-3-morpholin-4-ylcyclopentyl]amino}-3-nitrophenyl)sulfonyl]-2-(1H-pyrrolo[2,3-b]pyridin-5-yloxy)benzamide] | < 0.01 nM |
| CC1(C)CCC(CN2CCN(c3ccc(C(=O)NS(=O)(=O)c4ccc(NCC5CNCCO5)c([N+](=O)[O-])c4)c(Oc4cnc5[nH]ccc5c4)c3)CC2)=C(c2ccc(Cl)cc2)C1 (stereo not shown) [Compound 113, 4-(4-{[2-(4-chlorophenyl)-4,4-dimethylcyclohex-1-en-1-yl]methyl}piperazin-1-yl)-N-({4-[(morpholin-2-ylmethyl)amino]-3-nitrophenyl}sulfonyl)-2-(1H-pyrrolo[2,3-b]pyridin-5-yloxy)benzamide] | < 0.01 nM |
| CC1(C)CCC(CN2CCN(c3ccc(C(=O)NS(=O)(=O)c4ccc(NCC5CCOC5)c([N+](=O)[O-])c4)c(Oc4cnc5[nH]ccc5c4)c3)CC2)=C(c2ccc(Cl)cc2)C1 (stereo not shown) [Compound 114, 4-(4-{[2-(4-chlorophenyl)-4,4-dimethylcyclohex-1-en-1-yl]methyl}piperazin-1-yl)-N-({3-nitro-4-[(tetrahydrofuran-3-ylmethyl)amino]phenyl}sulfonyl)-2-(1H-pyrrolo[2,3-b]pyridin-5-yloxy)benzamide] | < 0.01 nM |
